Values quoted from earlier work in patent publication US5393873A, “Peptides with anticoagulant activity” (BASF Aktiengesellschaft, priority 1991, dated 1995).

Molecular target: thrombin (Homo sapiens, UniProt P00734)

Substance: Val-Val-Tyr-Thr-Asp-Cys-Thr-Glu-Ser-Gly-Gln-Asn-Leu-Cys-Leu-Cys-Glu-Gly-Ser-Asn-Val-Cys-Gly-Gln-Gly-Asn-Lys-Cys-Ile-Leu-Gly-Ser-Asp-Gly-Glu-Lys-Asn-Gly-Cys-Val-Thr-Gly-Glu-Gly-Thr-Pro-Lys-Pro-Gln-Ser-His-Asn-Asp-Gly-Asp-Phe-Glu-Glu-Ile-Pro-Glu-Glu-Tyr(SO3 H)-Leu-Gln [Hirudin]
- binding to thrombin: very strongly
